Reference: US7632839B2, “Mitotic kinesin inhibitors” (Merck & Co. Inc., priority 2005, dated 2009)
pIC50: −log10 of the molar value.

Biological target: T1, human KSP motor domain (KSP(367H)) (Homo sapiens, UniProt P52732)
T1 construct: were used to amplify the motor domain and the neck linker region; made in house; host or cells: E. coli BL21 (DE3), pRSETa
T1 sequence (P52732 18-359 limits assumed): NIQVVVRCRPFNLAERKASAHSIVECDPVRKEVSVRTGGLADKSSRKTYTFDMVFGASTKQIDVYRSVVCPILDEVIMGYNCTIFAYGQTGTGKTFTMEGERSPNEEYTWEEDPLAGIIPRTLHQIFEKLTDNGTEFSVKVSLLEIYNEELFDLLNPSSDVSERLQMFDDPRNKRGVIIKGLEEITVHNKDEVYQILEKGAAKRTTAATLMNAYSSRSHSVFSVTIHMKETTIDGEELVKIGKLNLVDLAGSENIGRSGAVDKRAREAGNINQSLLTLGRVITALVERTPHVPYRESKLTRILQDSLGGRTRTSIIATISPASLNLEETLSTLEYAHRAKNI
Assay: Kinesin ATPase In Vitro Assay
Format: biochemical
Settings: KSP motor domain with microtubules, 1 mM ATP, 23° C.
Excerpt: I. Kinesin ATPase In Vitro Assay
Cloning and Expression of Human Poly-Histidine Tagged KSP Motor Domain (KSP(367H))
Plasmids for the expression of the human KSP motor domain construct were cloned by PCR using a pBluescript full length human KSP construct (Blangy et al., Cell, vol. 83, pp 1159-1169, 1995) as a template. The N-terminal primer 5′-[…] (SEQ.ID.NO.: 1) and the C-terminal primer 5′-[…] […] (SEQ.ID.NO.: 2) were used to amplify the motor domain and the neck linker region. The PCR products were digested with AseI and XhoI, ligated into the NdeI/XhoI digestion product of pRSETa (Invitrogen) and transformed into E. coli BL21 (DE3).
Cells were grown at 37° C. to an OD600 of 0.5. […]
The kinesin motor domain is incubated with microtubules, 1 mM ATP (1:1 MgCl2: Na-ATP), and compound at 23° C. in buffer containing 80 mM K-HEPES (pH 7.0), 1 mM EGTA, 1 mM DTT, 1 mM MgCl2, and 50 mM KCl. […] Free phosphate from the ATP hydrolysis reaction is measured via a quinaldine red/ammonium molybdate assay by adding 150 μl of quench C buffer containing a 2:1 ratio of quench A:quench B. Quench A contains 0.1 mg/ml quinaldine red and 0.14% polyvinyl alcohol; quench B contains 12.3 mM ammonium molybdate tetrahydrate in 1.15 M sulfuric acid. The reaction is incubated for 10 minutes at 23° C., and the absorbance of the phospho-molybdate complex is measured at 540 nm.

pIC50: ≥ 4.30
SMILES: Cc1ccc(C(=O)N(CC(F)CN)C(c2nc3cnccc3c(=O)n2Cc2ccccc2)C(C)C)cc1 [Compound I-13, N-(3-amino-2-(R,S)-fluoropropyl)-N-[1-(3-benzyl-4-oxo-3,4-dihydropyrido[3,4-d]pyrimidin-2-yl)-2-(R,S)-methylpropyl]-4-methylbenzamide]
